The text below walks through data of ChEMBL document CHEMBL5614413, “Design, synthesis and biological evaluation of amphiphilic benzopyran derivatives as potent antibacterial agents against multidrug-resistant bacteria” (Eur J Med Chem, 2024).

The subject of one series is Klebsiella pneumoniae. Briefly: Antibacterial activity against Klebsiella pneumoniae ATCC 10031. Format: functional.
Series [1] has as its system Staphylococcus aureus. Briefly: Antibacterial activity against erythromycin-susceptible Staphylococcus aureus ATCC 25923. Format: functional.
The next series concerns Bacillus subtilis. Briefly: Antibacterial activity against penicillin-susceptible Bacillus subtilis ATCC 9372. The series is classed as functional.
A further series deals with Enterococcus faecalis. As to the kind of experiment: Antibacterial activity against vancomycin-susceptible Enterococcus faecalis ATCC 29212. The series is classed as functional.
Series [2] relates to Staphylococcus aureus. As to the kind of experiment: Antibacterial activity against methicillin-resistant Staphylococcus aureus ATCC 43300. The series is classed as functional.
The subject of series [3] is Staphylococcus aureus. Briefly: Antibacterial activity against penicillin-resistant Staphylococcus aureus ATCC 31007. Format: functional.
Series [4] has as its system Staphylococcus epidermidis. Briefly: Antibacterial activity erythromycin-susceptible Staphylococcus epidermidis ATCC 12228. Format: functional.
A further series has as its system Escherichia coli. Briefly: Antibacterial activity against penicillin-susceptible Escherichia coli ATCC 25922. The series is classed as functional.
Series [5] is described as follows: Hemolytic activity in sheep RBC. The series is classed as toxicity, cell-based, Ovis aries, Erythrocyte. Particulars: sheep red blood cells (erythrocytes).
The test system of another series is Pseudomonas aeruginosa. As to the kind of experiment: Antibacterial activity against penicillin-susceptible Pseudomonas aeruginosa ATCC 27853. The series is classed as functional.
Series [6] can be described thus: Selectivity index, ratio of HC50 for hemolytic activity in sheep RBC to MIC for antibacterial activity against methicillin-resistant Staphylococcus aureus ATCC 43300. Format: toxicity. Particulars: sheep red blood cells (erythrocytes), read-out: Selectivity Index.
The test system of a further series is Acinetobacter baumannii. As to the kind of experiment: Antibacterial activity against Acinetobacter baumannii ATCC 19606. The series is classed as functional.

Converted amounts (≈) assume the structure as drawn.

As a reminder, the MIC is the lowest concentration that inhibits growth of the organism. Read a high MIC as weaker potency. One may read the HC50 as the concentration giving 50% haemolysis. A low value points to stronger haemolysis. On to `CC(=O)c1ccc2c(c1OCCCN1CCOCC1)C=CC(C)(CCC=C(C)C)O2` (configuration not stated), for which the MIC in the series on Klebsiella pneumoniae was greater than 128 µg/mL; in the series on Staphylococcus aureus [1], greater than 128 µg/mL; against Bacillus subtilis it was 128 µg/mL (≈ 310 µM); with Enterococcus faecalis, greater than 128 µg/mL; against Staphylococcus aureus [2], greater than 128 µg/mL; with Staphylococcus aureus [3], greater than 128 µg/mL. The MIC in series [4] was greater than 128 µg/mL; with Escherichia coli, greater than 128 µg/mL; against Pseudomonas aeruginosa, greater than 128 µg/mL; in the series with Acinetobacter baumannii, 128 µg/mL (≈ 310 µM). Besides, the concentration for 50% haemolysis (HC50) in series [5] amounted to 560 µg/mL. In series [6], the selectivity ratio is less than 4.4.
In the case of `CC(=O)c1ccc2c(c1OCCCN(CCCN(C)C)CCCN(C)C)C=CC(C)(CCC=C(C)C)O2` (configuration not stated), the MIC in the series with Klebsiella pneumoniae was determined as 16 µg/mL (≈ 31.1 µM); against Staphylococcus aureus [1], 64 µg/mL (≈ 125 µM); in the series on Bacillus subtilis it was 32 µg/mL (≈ 62.3 µM); against Enterococcus faecalis, 64 µg/mL (≈ 125 µM); in the series on Staphylococcus aureus [2], 32 µg/mL (≈ 62.3 µM); against Staphylococcus aureus [3] it was 64 µg/mL (≈ 125 µM). Besides, the MIC in [4] was determined as 32 µg/mL (≈ 62.3 µM); in the series with Escherichia coli, 16 µg/mL (≈ 31.1 µM); with Pseudomonas aeruginosa, 64 µg/mL (≈ 125 µM); against Acinetobacter baumannii, 16 µg/mL (≈ 31.1 µM). Further, the HC50 in [5] amounted to 325 µg/mL. Further, in series [6], the selectivity ratio turned out to be 5.1.
Turning to `CC(=O)c1ccc2c(c1OCCCNCCCN1CCN(C)CC1)C=CC(C)(CCC=C(C)C)O2` (configuration not stated), the MIC against Klebsiella pneumoniae, in the series with Staphylococcus aureus [1], against Bacillus subtilis, with Enterococcus faecalis, in the series with Staphylococcus aureus [2] and against Staphylococcus aureus [3] was 16 µg/mL (≈ 33.1 µM) each time. Besides, the MIC in series [4] was found to be 8 µg/mL (≈ 16.5 µM); in the series on Escherichia coli it was 16 µg/mL (≈ 33.1 µM); in the series with Pseudomonas aeruginosa, 32 µg/mL (≈ 66.2 µM); in the series on Acinetobacter baumannii it was 16 µg/mL (≈ 33.1 µM). In addition, in series [5], the HC50 is 168 µg/mL. Further, the selectivity ratio in series [6] was 10.5.
On to COLISTIN, for which the MIC was found to be 1 µg/mL against Klebsiella pneumoniae; 128 µg/mL against Staphylococcus aureus [1]; 16 µg/mL in the series on Bacillus subtilis; 128 µg/mL in the series with Enterococcus faecalis; 128 µg/mL with Staphylococcus aureus [2]; 128 µg/mL in the series with Staphylococcus aureus [3]. Further, the MIC in [4] was 64 µg/mL; against Escherichia coli, 0.5 µg/mL; with Pseudomonas aeruginosa, 0.5 µg/mL; in the series with Acinetobacter baumannii, 1 µg/mL.
For `CC(=O)c1c(OCCCN(CCCN(C)C)CCCN(C)C)c2c(c3c1OC(C)(CCC=C(C)C)C=C3)OC(C)(CCC=C(C)C)C=C2` (configuration not stated), the MIC in the series with Klebsiella pneumoniae was 8 µg/mL (≈ 12 µM); in the series on Staphylococcus aureus [1], 4 µg/mL (≈ 6.02 µM); in the series with Bacillus subtilis, 4 µg/mL (≈ 6.02 µM); against Enterococcus faecalis, 4 µg/mL (≈ 6.02 µM); in the series on Staphylococcus aureus [2] it was 2 µg/mL (≈ 3.01 µM); in the series with Staphylococcus aureus [3], 4 µg/mL (≈ 6.02 µM). For the same compound, the MIC stood at 4 µg/mL (≈ 6.02 µM) in series [4], 8 µg/mL (≈ 12 µM) in the series on Escherichia coli, 128 µg/mL (≈ 193 µM) against Pseudomonas aeruginosa and 8 µg/mL (≈ 12 µM) in the series with Acinetobacter baumannii. The compound also returned an HC50 in series [5] of 30.2 µg/mL. Besides, in [6], the selectivity ratio amounted to 15.1.
Regarding `CCN(CC)C(=O)COc1c(C(C)=O)ccc2c1C=CC(C)(CCC=C(C)C)O2` (configuration not stated), the MIC in the series on Klebsiella pneumoniae is greater than 128 µg/mL; against Staphylococcus aureus [1], greater than 128 µg/mL; in the series with Bacillus subtilis, greater than 128 µg/mL; against Enterococcus faecalis it was greater than 128 µg/mL; in the series with Staphylococcus aureus [2], 128 µg/mL (≈ 320 µM); with Staphylococcus aureus [3], greater than 128 µg/mL. In addition, the MIC in [4] was greater than 128 µg/mL; with Escherichia coli it was greater than 128 µg/mL; against Pseudomonas aeruginosa it was greater than 128 µg/mL; in the series with Acinetobacter baumannii it was 128 µg/mL (≈ 320 µM). The HC50 in series [5] was determined as 131 µg/mL. Further, in [6], the selectivity ratio is 1.
Turning to `CNCCCOc1c(C(C)=O)ccc2c1C=CC(C)(CCC=C(C)C)O2` (configuration not stated), the MIC against Klebsiella pneumoniae stood at 16 µg/mL (≈ 44.8 µM); in the series with Staphylococcus aureus [1], 8 µg/mL (≈ 22.4 µM); in the series with Bacillus subtilis, 8 µg/mL (≈ 22.4 µM); in the series with Enterococcus faecalis it was 4 µg/mL (≈ 11.2 µM); against Staphylococcus aureus [2], 16 µg/mL (≈ 44.8 µM); in the series with Staphylococcus aureus [3] it was 8 µg/mL (≈ 22.4 µM). In addition, the MIC came to 4 µg/mL (≈ 11.2 µM) in [4], 16 µg/mL (≈ 44.8 µM) against Escherichia coli, 64 µg/mL (≈ 179 µM) in the series with Pseudomonas aeruginosa and 8 µg/mL (≈ 22.4 µM) against Acinetobacter baumannii. This compound also registered an HC50 in series [5] of 90.1 µg/mL.
Consider `CC(=O)c1ccc2c(c1OCCCN1CCCC1)C=CC(C)(CCC=C(C)C)O2` (configuration not stated), for which the MIC against Klebsiella pneumoniae came to 8 µg/mL (≈ 20.1 µM); in the series on Staphylococcus aureus [1], 32 µg/mL (≈ 80.5 µM); in the series with Bacillus subtilis, 16 µg/mL (≈ 40.2 µM); with Enterococcus faecalis, 16 µg/mL (≈ 40.2 µM); in the series with Staphylococcus aureus [2], 16 µg/mL (≈ 40.2 µM); with Staphylococcus aureus [3] it was 16 µg/mL (≈ 40.2 µM). Also, the MIC is 8 µg/mL (≈ 20.1 µM) in [4], greater than 128 µg/mL with Escherichia coli, greater than 128 µg/mL against Pseudomonas aeruginosa and 32 µg/mL (≈ 80.5 µM) in the series with Acinetobacter baumannii. In series [5], this compound returned an HC50 of 366 µg/mL.
